# According to patent US20040023951A1, “Combination therapy for treatment of psychoses” (priority 2002, published 2004):
# “And” between values parts separate entries of the source, which are not always exact repeats. Equal entries are not always repeated.
# System: Rats
# Test: Conditioned avoidance behavior in rats
# Type: in vivo, rat
# Source text: Conditioned Avoidance Behavior in Rats:
# In a conditioned avoidance test, animals learn to respond during a conditioned stimulus in order to avoid mild shock presentation. A response during the conditioned stimulus is termed an avoidance response, a response during shock is termed an escape response; a response failure is when the animal fails to respond during either the conditioned stimulus or the shock presentation and is indicative of motor impairment. […] Antipsychotic drugs decrease the percentage of avoidance responses without interfering with the ability of the animal to respond since the animals do emit escape responses. The percentage of response failures is considered a measure of motor impairment.
# Rats were required to press a response lever in an experimental chamber in order to avoid or escape foot-shock. Each experimental session consisted of 50 trials. During each trial, the chamber was illuminated and a tone presented for a maximum of 10 sec. A response during the tone immediately terminated the tone and the houselight, ending the trial. In the absence of a response during the tone alone, tone+foot-shock (2.0 mA) was presented for a maximum of 10 sec. A response during shock presentation immediately terminated the shock, the tone and the houselights ending the trial.
# If the effects are simply additive the results will be additive. If the effects of are synergistic, then the dose of second component required to produce full efficacy will be decreased.
# [1] = first component dose 0.01 in combination with Xanomeline dose 10
# [2] = first component dose 0.03 in combination with Xanomeline dose 10
# [3] = first component dose 0.1 in combination with Xanomeline dose 10
# [4] = first component dose 0.3 in combination with Xanomeline dose 10
# [5] = first component dose 0.001 in combination with Xanomeline dose 10
# [6] = first component dose 0.003 in combination with Xanomeline dose 10
# [7] = given alone, dose 0.03 (dose unit not given)
# [8] = first component dose 0.16 in combination with Xanomeline dose 10
# [9] = first component dose 0.32 in combination with Xanomeline dose 10
# [10] = first component dose 0.625 in combination with Xanomeline dose 10
# [11] = first component dose 1.25 in combination with Xanomeline dose 10
# [12] = first component dose 2.5 in combination with Xanomeline dose 10
# [13] = Xanomeline dose 10 with first component dose 0 (combination series)
SMILES,% Avoidance Responses ± SEM [1] [%],% Response Failures ± SEM [1] [%],% Avoidance Responses ± SEM [2] [%],% Response Failures ± SEM [2] [%],% Avoidance Responses ± SEM [3] [%],% Avoidance Responses ± SEM [4] [%],"% Avoidance Responses ± SEM (given alone, dose 0.1) [%]","% Response Failures ± SEM (given alone, dose 0.1) [%]","% Avoidance Responses ± SEM (given alone, dose 0.3) [%]","% Response Failures ± SEM (given alone, dose 0.3) [%]","% Avoidance Responses ± SEM (given alone, dose 1)","% Response Failures ± SEM (given alone, dose 1) [%]",% Avoidance Responses ± SEM [5] [%],% Avoidance Responses ± SEM [6] [%],% Avoidance Responses ± SEM [7] [%],"% Avoidance Responses ± SEM (given alone, dose 3)","% Avoidance Responses ± SEM (given alone, dose 10)","% Response Failures ± SEM (given alone, dose 10)",other results
OCCN1CCN(CCCN2c3ccccc3Sc3ccc(C(F)(F)F)cc32)CC1 [Fluphenazine],77 ± 12,1 ± 0,52 ± 12,3 ± 2,66 ± 11,33 ± 16,100 ± 0,0 ± 0,67 ± 9,2 ± 1,33 ± 6%,28 ± 9,,,,,,,% Response Failures ± SEM [3]: 0 ± 0%; % Response Failures ± SEM [4]: 6 ± 6%
"Cc1nc2n(c(=O)c1CCN1CCC(c3noc4cc(F)ccc34)CC1)CCCC2 [Risperidone, 3-[2-[4-(6-fluoro-1,2-benzisoxazol-3-yl)piperidino]ethyl]-2-methyl-6,7,8,9-tetrahydro-4H-pyrido[1,2-a]pyrimidin-4-one]",23 ± 14,,8 ± 2,,,,91 ± 5,,37 ± 11,,2 ± 1%,,48 ± 8,48 ± 16,100 ± 0,,,,
"Cc1cc2c(s1)Nc1ccccc1N=C2N1CCN(C)CC1 [Olanzapine, 2-methyl-4-(4-methyl-1-piperazinyl)-10H-thieno[2,3-b][1,5]benzodiazepine]",66 ± 11,,47 ± 12,,56 ± 6,53 ± 14,,,,,98 ± 1%,,,,,59 ± 16%,2 ± 1%,,% Avoidance Responses ± SEM (first component dose 1.0 in combination with Xanomeline dose 10): 9 ± 6%
O=C(CCCN1CCC(O)(c2ccc(Cl)cc2)CC1)c1ccc(F)cc1 [Haloperidol],57 ± 6,1 ± 0,27 ± 8,8 ± 6,,,59.0 ± 13.0,2 ± 1,10.0 ± 2.0,25 ± 12,,,70 ± 12,45 ± 13,98.0 ± 1.0,,,,"% Response Failures ± SEM [5]: 5 ± 3%; % Response Failures ± SEM [6]: 14 ± 11%; % Response Failures ± SEM (given alone, dose 0.03 (dose unit not given), measure of motor impairment): 1 ± 0%"
CN(C)CCCN1c2ccccc2Sc2ccc(Cl)cc21 [Chlorpromazine],,,,,,,,,,,,,,,,,10 ± 4%,16 ± 8%,"% Avoidance Responses ± SEM [8]: 56 ± 11%; % Response Failures ± SEM [8]: 1 ± 1%; % Avoidance Responses ± SEM [9]: 46 ± 22%; % Response Failures ± SEM [9]: 19 ± 19%; % Avoidance Responses ± SEM [10]: 30 ± 17%; % Response Failures ± SEM [10]: 0 ± 0%; % Avoidance Responses ± SEM [11]: 20 ± 10%; % Response Failures ± SEM [11]: 8 ± 7%; % Avoidance Responses ± SEM [12]: 22 ± 7%; % Response Failures ± SEM [12]: 1 ± 0%; % Avoidance Responses ± SEM (given alone, dose 1.25): 99 ± 1%; % Response Failures ± SEM (given alone, dose 1.25): 0 ± 0%; % Avoidance Responses ± SEM (given alone, dose 2.5): 96 ± 4%; % Response Failures ± SEM (given alone, dose 2.5): 0 ± 0%; % Avoidance Responses ± SEM (given alone, dose 5): 27 ± 12%; % Response Failures ± SEM (given alone, dose 5): 7 ± 5%"
"CCCCCCOc1nsnc1C1=CCCN(C)C1 [Xanomeline, 3-(4-hexyloxy-1,2,5-thiadiazol-3-yl)-1,2,5,6-tetrahydro-1-methylpyridine]",,,,,,,,,,,98 ± 2% and 99 ± 0%,0 ± 0,,,,93 ± 3% and 99 ± 1%,44 ± 18% and 78 ± 12% and 63 ± 18%,2 ± 1% and 1 ± 0%,"% Avoidance Responses ± SEM [13]: 87 ± 9% and 56 ± 13% and 72 ± 13%; % Response Failures ± SEM [13]: 0 ± 0%; % Response Failures ± SEM (given alone, dose 3): 0 ± 0%; % Avoidance Responses ± SEM (given alone, dose 17.5): 11 ± 4%; % Response Failures ± SEM (given alone, dose 17.5): 2 ± 1%"
